Measured values reported in patent US7955808B2, “Bitter taste receptors” (Deutsches Institut für Ernährungsorschung, Stiftung des …, priority 2002, dated 2011).

Experiments:
human panelists [1] = experiment: Human taste adaptation experiment; assay type: in vivo; conditions: for bitterness after prolonged stimulation with phenyl-beta-D-glucopyranoside (cross-adaptation): in vivo
Protocol: To investigate adaptation, the 8 panelists first maintained aqueous solutions (5 ml) of phenyl-β-D-glucopyranoside (8 mM), phenyl-alpha-D-glucopyranoside (180 mM), salicin (8 mM), or helicin (8 mM) for 15 s in their oral cavities and evaluated the bitter intensity as described above. After 30 min, they kept a denatonium benzoate solution (5 ml, 0.0003 mM) for 15 s in their mouth and evaluated its bitterness. The panelists spat off the denatonium benzoate solution, took up the phenyl-β-D-glucopyranoside or the phenyl-alpha-D-glucopyranoside solutions orally for 120 s or 180 s and judged their bitterness intensity after 15, 30, 60, 120 and 180s. Thereafter, the panelists spat off these solutions and then sequentially took up salicin, helicin (5 ml, 8 mM) and denatonium benzoate (5 ml, 0.0003 mM) and evaluated bitterness intensities of these solutions after 15 s. After an additional 30 min, the first experiment was repeated. The data of three different sessions for each panelist were averaged. Intensity values between individuals and separate sessions differed by not more than ±0.5 units.

hTAS2R16 [2] = biological target: T1, hTAS2R16 (Homo sapiens, UniProt Q9NYV7, R222H); experiment: FLIPR calcium assay, hTAS2R16-expressing HEK293/15 transfectants; assay type: cell-based
T1 construct: gene-specific primers that span the complete coding region of the individual hTAS2R genes; first 45 amino acids of rat somatostatin type 3 receptor (cell surface-targeting signal) (N); expressed in transfected cells; host or cells: HEK293/15 cells (HEK293 stably expressing Galpha15), transient transfection
T1 sequence (Q9NYV7 1-291 R222H): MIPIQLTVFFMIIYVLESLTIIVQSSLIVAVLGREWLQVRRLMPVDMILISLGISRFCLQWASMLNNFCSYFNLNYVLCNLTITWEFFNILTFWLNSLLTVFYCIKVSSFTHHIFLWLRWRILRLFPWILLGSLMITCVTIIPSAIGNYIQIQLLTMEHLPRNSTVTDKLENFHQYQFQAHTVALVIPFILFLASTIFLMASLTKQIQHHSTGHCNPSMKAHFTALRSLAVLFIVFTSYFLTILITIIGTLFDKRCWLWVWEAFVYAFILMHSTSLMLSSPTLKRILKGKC
Protocol: A fluorescence imaging plate reader (FLIPR, Molecular Devices) was used to functionally screen cell populations transiently transfected with expression vectors encoding the above-described 24 bitter receptors and to establish concentration-response curves for hTAS2R16 and hTASR10. […] For the FLIPR experiments the HEK293/15 cells were grown to 50% confluence. […] After 48 h the cells in each well were transfected using Lipofectamine 2000 and 24-30 h later were loaded with FIuo4AM (Molecular Probes). Thereafter they were stimulated with bitter compounds (SigmaAldrich, further purified by reversed-phase HPLC to >99% purity). Calcium signals were recorded simultaneously from each well at 1 Hz at 510 nm after excitation at 488 nm and the recordings were corrected for cell density. […] The calculations rest on at least four independent transfection experiments.
EC50 and threshold values obtained with hTAS2R16-expressing transfectants are shown in Table 1 below and the results are described in Example 4.

hTAS2R16 [3] = biological target: T1, hTAS2R16; experiment: Single-cell Ca2+ imaging, hTAS2R16-transfected HEK293/15 cells (selectivity, cross-desensitization); assay type: cell-based
Protocol: A fluorescence imaging plate reader (FLIPR, Molecular Devices) was used to functionally screen cell populations transiently transfected with expression vectors encoding the above-described 24 bitter receptors and to establish concentration-response curves for hTAS2R16 and hTASR10. […] For the FLIPR experiments the HEK293/15 cells were grown to 50% confluence. […] After 48 h the cells in each well were transfected using Lipofectamine 2000 and 24-30 h later were loaded with FIuo4AM (Molecular Probes). Thereafter they were stimulated with bitter compounds (SigmaAldrich, further purified by reversed-phase HPLC to >99% purity). Calcium signals were recorded simultaneously from each well at 1 Hz at 510 nm after excitation at 488 nm and the recordings were corrected for cell density. […]
Single-cell Ca^2+ imaging was performed with the hTAS2R16-transfected HEK293/15 cells as described in Cell 95, 917-926 (1998), but with the following modifications: The Till Photonics imaging system (Munich, Germany) was used in which a monochromator is connected by a quartz fiber lightguide and an epifluorescence condenser to an inverted Olympus IX50 microscope equipped with a UApo/340 40×1.35 oil-immersion lens. […] The 5 s interval camera pictures of all cells in the microscope field of vision permanently were stored and analyzed offline. […]

human panelists [4] = experiment: Human taste experiments: bitter thresholds and dose-response by sensory panel; assay type: in vivo
Protocol: 15 experienced panelists in a sensory panel room at 22-25° C. determined bitter thresholds on three different sessions using a triangle test with tap water as solvent, according to methodology set out in J. Agric. Food Chem., 49, 231-238 (2001), or Mailgaard M et al, “Sensory Evaluation Techniques” (CRC Press LLC, New York 1999). For dose-response relations, bitter tastant concentration series were presented to 10 trained panelists in random order. The panelists ranked the samples in increasing order of intensity and, for each concentration, evaluated bitterness intensity on a scale from 0 to 5 (ref. 24). The dose-response curves of three different sessions were averaged. The intensity values between individuals and separate sessions differed by not more than 0.5 units.

hTAS2R16 [5] = biological target: T1, hTAS2R16; experiment: FLIPR assay, heterologous expression of hTAS2R16; assay type: cell-based; conditions: hTAS2R16
Text: (§1) Transient transfection of TAS2Rs into HEK-293T-Gα16gustducin44 cells.

hTAS2R14 = biological target: T2, hTAS2R14 (Homo sapiens, UniProt Q9NYV8); experiment: FLIPR assay, heterologous expression of hTAS2R14; assay type: cell-based
T2 construct: gene-specific primers that span the complete coding region of the individual hTAS2R genes; first 45 amino acids of rat somatostatin type 3 receptor (cell surface-targeting signal) (N); expressed in transfected cells; host or cells: HEK-293T-Gα16gustducin44 cells (alternatively HEK-293 co-transfected with phospholipase-Cβ2 and α-gustducin)
T2 sequence (Q9NYV8 1-317): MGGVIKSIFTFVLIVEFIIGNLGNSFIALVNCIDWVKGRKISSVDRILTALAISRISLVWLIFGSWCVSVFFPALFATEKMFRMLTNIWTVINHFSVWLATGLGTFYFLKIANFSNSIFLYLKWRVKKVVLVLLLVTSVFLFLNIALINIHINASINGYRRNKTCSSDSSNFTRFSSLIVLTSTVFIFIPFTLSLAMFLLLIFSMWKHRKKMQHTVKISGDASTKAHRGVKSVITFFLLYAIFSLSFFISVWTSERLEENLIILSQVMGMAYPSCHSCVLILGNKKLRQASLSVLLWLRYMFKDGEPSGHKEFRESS
Text: as §1

hTAS2R10 [6] = biological target: T3, hTAS2R10 (Homo sapiens, UniProt Q9NYW0, T156M); experiment: FLIPR assay, heterologous expression of hTAS2R10; assay type: cell-based
T3 construct: gene-specific primers that span the complete coding region of the individual hTAS2R genes; first 45 amino acids of rat somatostatin type 3 receptor (cell surface-targeting signal) (N); expressed in transfected cells; host or cells: HEK-293T-Gα16gustducin44 cells (alternatively HEK-293 co-transfected with phospholipase-Cβ2 and α-gustducin)
T3 sequence (Q9NYW0 1-307 T156M): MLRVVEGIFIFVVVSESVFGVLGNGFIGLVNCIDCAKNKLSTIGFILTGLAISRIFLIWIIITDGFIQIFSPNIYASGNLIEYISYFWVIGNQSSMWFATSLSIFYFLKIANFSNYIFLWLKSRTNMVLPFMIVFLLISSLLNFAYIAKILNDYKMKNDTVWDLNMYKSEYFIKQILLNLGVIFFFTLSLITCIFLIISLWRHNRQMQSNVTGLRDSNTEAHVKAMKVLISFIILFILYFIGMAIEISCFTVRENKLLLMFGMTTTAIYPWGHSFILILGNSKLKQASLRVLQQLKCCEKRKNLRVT
Text: as §1

hT2R4 receptor = biological target: T4, hT2R4 receptor (Homo sapiens, UniProt Q9NYW5); conditions: concentrations needed two orders of magnitude above human taste thresholds; cited from earlier work
T4 sequence (Q9NYW5 1-299): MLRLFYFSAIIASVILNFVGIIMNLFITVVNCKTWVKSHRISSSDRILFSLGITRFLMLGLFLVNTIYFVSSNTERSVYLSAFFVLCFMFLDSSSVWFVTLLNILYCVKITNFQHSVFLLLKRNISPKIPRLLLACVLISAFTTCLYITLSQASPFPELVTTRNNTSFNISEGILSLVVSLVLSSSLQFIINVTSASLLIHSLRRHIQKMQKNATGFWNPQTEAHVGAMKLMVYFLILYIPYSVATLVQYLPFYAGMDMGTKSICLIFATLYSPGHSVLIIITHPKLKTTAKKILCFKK

hTAS2R38 = biological target: T5, hTAS2R38 (Homo sapiens, UniProt P59533); experiment: FLIPR assay, heterologous expression of hTAS2R38; assay type: cell-based
T5 construct: gene-specific primers that span the complete coding region ... contains the first 45 amino acids of the rat somatostatin type 3 receptor
T5 sequence (P59533 1-333 A49P/I296V): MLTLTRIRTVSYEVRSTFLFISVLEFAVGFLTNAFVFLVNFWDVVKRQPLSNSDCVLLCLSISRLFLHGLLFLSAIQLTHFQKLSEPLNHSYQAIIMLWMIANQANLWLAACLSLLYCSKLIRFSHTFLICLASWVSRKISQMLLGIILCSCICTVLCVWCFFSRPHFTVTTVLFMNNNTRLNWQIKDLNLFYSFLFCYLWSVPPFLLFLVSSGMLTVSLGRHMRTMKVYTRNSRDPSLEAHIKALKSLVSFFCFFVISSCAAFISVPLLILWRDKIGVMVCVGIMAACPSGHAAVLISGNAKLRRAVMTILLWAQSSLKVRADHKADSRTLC
Text: These cells stably express a chimeric G protein constructed from human Gα16 and rat gustducin. Finally, we seeded the transfected cells at a density of 3×10^3 cells per well into 96-well black-wall, clear-bottom microtiter plates (Greiner).
Co-transfection of TAS2Rs with gustducin and phospholipase-Cβ2 into HEK-293 cells. Alternatively, we transfected simultaneously plasmid DNAs encoding one of the TAS2Rs, phospholipase-Cβ2 and α-gustducin into HEK-293 cells using the lipofectamine method. Additional cotransfection of G-protein β and γ-subunits may improve the bitter tastant-induced responses. Thereafter, the transfected cells were seeded at a density of 3×10^3 cells per well into 96-well black-wall, clear-bottom microtiter plates (Greiner).
Thereafter, cells were gently washed in HBS by an automated plate washer (Denley Cellwash, Labsystenms) and transferred to the FLIPR (Molecular Devices). The FLIPR integrates an argon laser excitation source, a 96-well pipettor, and a detection system utilizing a Charged Coupled Device imaging camera. […] Fluorescence data were collected 1 min before and 10 min after stimulation. Data were collected every 6 s before and every 1 s after agonist stimulation. 50 μl of 3× concentrated agonists were delivered within 2 by the integrated 96-well pipettor to the wells containing 100 μl HBS. Agonist responses were quantified using the amplitudes of the fluorescence peaks. We averaged the responses of five wells containing cells expressing the same receptor and that received the same stimulus. Calcium traces were determined in triplicate of mock-transfected cells stimulated with the same concentration of tastant.

hTAS2R10 [7] = biological target: T3, hTAS2R10; experiment: FLIPR calcium assay, hTAS2R10-expressing HEK293/15 transfectants; assay type: cell-based
Protocol: A fluorescence imaging plate reader (FLIPR, Molecular Devices) was used to functionally screen cell populations transiently transfected with expression vectors encoding the above-described 24 bitter receptors and to establish concentration-response curves for hTAS2R16 and hTASR10. […] For the FLIPR experiments the HEK293/15 cells were grown to 50% confluence. The cells were then seeded at a density of 3×10^3 cells per well into 96-well black-wall, clear-bottom microtiter plates (Greiner). After 48 h the cells in each well were transfected using Lipofectamine 2000 and 24-30 h later were loaded with FIuo4AM (Molecular Probes). […] The responses of five wells containing cells expressing the same receptor and that received the same stimulus (i.e., the same compound at the same concentration) were averaged. Calcium traces were subtracted that were determined in triplicate of mock-transfected cells stimulated with the same concentration of tastant. The calculations rest on at least four independent transfection experiments.

OCc1ccccc1O[C@@H]1O[C@H](CO)[C@@H](O)[C@H](O)[C@H]1O [Compound 2, salicin]
initial bitterness score by test panel (human panelists [1]; 8 mM, 15 s): equally intensely bitter
bitterness after prolonged stimulation with phenyl-beta-D-glucopyranoside (cross-adaptation) (human panelists [1]): less bitter
EC50 (hTAS2R16 [2]): 1400 µM
Threshold Value FLIPR (hTAS2R16 [2]): 0.07 ± 0.02 mM
response after repeated stimulation with phenyl-beta-D-glucopyranoside (cross-desensitization) (hTAS2R16 [3]; hTAS2R16-expressing cells): largely diminished responses
Threshold Value Human (human panelists [4]; bitter threshold, triangle test, tap water): 0.2 ± 0.1 mM
EC50 (human panelists [4]; bitterness intensity dose-response): 1100 µM
Threshold (hTAS2R16 [5]): 0.07 ± 0.02 mM
EC50 (hTAS2R16 [5]; read-out: EC50): 1400 ± 200 µM

N[C@@H](Cc1ccc(O)cc1)C(=O)O [L-Tyrosine]
reacts at (hTAS2R14): 1 mM
receptor activation (in words) (hTAS2R14): activated

CC(C)C[C@H](N)C(=O)O [leucine]
receptor activation (in words) (hTAS2R14): activated

N[C@@H](Cc1ccccc1)C(=O)O [phenylalanine]
receptor activation (in words) (hTAS2R14): activated

CC[N+](CC)(CC(=O)Nc1c(C)cccc1C)Cc1ccccc1.O=C([O-])c1ccccc1 [Denatonium benzoate]
bitterness after prolonged stimulation with phenyl-beta-D-glucopyranoside (cross-adaptation) (human panelists [1]): not
Approx. Threshold (hTAS2R10 [6]; hTAS2R10): 0.003 mM
receptor activation (in words) (hTAS2R10 [6]; hTAS2R10): activated
EC50 (hTAS2R10 [6]; hTAS2R10, read-out: EC50): 70 µM
activation of TAS2R16 (hTAS2R16 [3]): cannot activate

N[C@@H](Cc1c[nH]c2ccccc12)C(=O)O [tryptophan]
receptor activation (in words) (hTAS2R14): activated

N[C@@H](Cc1c[nH]cn1)C(=O)O [histidine]
receptor activation (in words) (hTAS2R14): activated

CCCc1cc(=O)[nH]c(=S)[nH]1 [6-Propyl-2-thiouracil]
in vitro response of the receptor (hT2R4 receptor): provided a response
Approx. Threshold (hTAS2R38): 0.3 µM
receptor activation (in words) (hTAS2R38): activated
EC50 (hTAS2R38; read-out: EC50): 2 µM

O=C1C[C@@H]2OCC=C3CN4CC[C@]56c7ccccc7N1[C@H]5[C@H]2[C@H]3C[C@H]46 [Strychnine]
EC50 (hTAS2R10 [7]): 5 to 20 µM
threshold of activation (hTAS2R10 [7]; hTAS2R10 transfectants): approximately 0.1 μM
EC50 (hTAS2R10 [6]): 40 µM
Approx. Threshold (hTAS2R10 [6]; hTAS2R10): 0.003 mM
receptor activation (in words) (hTAS2R10 [6]; hTAS2R10): activated

CC[N+](CC)(CC(=O)Nc1c(C)cccc1C)Cc1ccccc1 [denatonium]
in vitro response of the receptor (hT2R4 receptor): provided a response
